Series [1] has as its target T1, human dopamine D2L receptors (long isoform) (Homo sapiens, UniProt P14416).
T1 construct: expressed in transfected cells; membranes)
The experiment in a line: Dopamine D2L receptor binding ([125I] iodospiperone), basis of selectivity Ki(D2)/Ki(D3). Particulars: for Selectivity [Ki(D2)/Ki(D3)]: D2L vs D3; for D2/D3: Table 7, compounds of formula IIa. The protocol: The substance to be tested was either dissolved in methanol/Chremophor® (BASF-AG) or in dimethyl sulfoxide and then diluted with water to the desired concentration. […] Each assay mixture was run in triplicate. The incubation buffer contained 50 mM tris, 120 mM NaCl, 5 mM KCl, 2 mM CaCl2, 2 mM MgCl2 and 0.1% bovine serum albumin. The buffer was adjusted to pH 7.4 with HCl. Measurement and Analysis: After having been incubated at 25° C. for 60 minutes, the assay mixtures were filtered through a Wathman GF/B glass fiber filter under vacuum using a cell collecting device. The filters were transferred to scintillation viols using a filter transfer system. After 4 ml of Ultima Gold® (Packard) have been added, the samples were shaken for one hour and the radioactivity was then counted in a Beta-Counter (Packard, Tricarb 2000 or 2200CA). The cpm values were converted into dpm using a standard quench series and the program belonging to the instrument. The inhibition curves were analyzed by means of iterative nonlinear regression analysis using the Statistical Analysis System (SAS) which is similar to the “LIGAND” program described by Munson and Rodbard.

Series [2] is described as follows: Concentration of compounds in plasma and brain following oral dosing. Format: in vivo, Sprague-Dawley rats. As to conditions: male rats, 10 mg/kg orally by gavage. The procedure:
2. Determination of the Concentration of Compounds in Plasma and Brain Following Dosing of Compounds in Animals
Male Sprague-Dawley rats were used in this study (2 to 4 per experiment). The animals were fasted overnight prior to dosing and throughout the duration of the study but were permitted water ad libitum.
Each rat received a 10 mg/kg (5 mL/kg) dose orally by gavage. At 0.5, 3 and 8 hours after drug administration, three animals were put under deep anesthesia using isoflurane and euthanized by bleeding (cardiac puncture) under deep isoflurane anesthesia. EDTA blood samples and brain tissue will be collected from each rat. Upon collection, the samples were promptly placed in an ice bath, and within 2 hours after sample collection, the blood was centrifuged at about 4° C. The resulting brain and plasma samples were placed in clean glass tubes and stored in a freezer until analysis.
The plasma samples were assayed for parent compound using appropriate liquid chromatography—mass spectrometry procedures. The results for compounds I are given in tables 2, and illustrate the high brain concentrations attainable with the compounds of the invention.

Series [3] deals with T2, human dopamine D3 receptors (Homo sapiens, UniProt P35462).
T2 construct: expressed in transfected cells; membranes)
T2 sequence (P35462 whole entry): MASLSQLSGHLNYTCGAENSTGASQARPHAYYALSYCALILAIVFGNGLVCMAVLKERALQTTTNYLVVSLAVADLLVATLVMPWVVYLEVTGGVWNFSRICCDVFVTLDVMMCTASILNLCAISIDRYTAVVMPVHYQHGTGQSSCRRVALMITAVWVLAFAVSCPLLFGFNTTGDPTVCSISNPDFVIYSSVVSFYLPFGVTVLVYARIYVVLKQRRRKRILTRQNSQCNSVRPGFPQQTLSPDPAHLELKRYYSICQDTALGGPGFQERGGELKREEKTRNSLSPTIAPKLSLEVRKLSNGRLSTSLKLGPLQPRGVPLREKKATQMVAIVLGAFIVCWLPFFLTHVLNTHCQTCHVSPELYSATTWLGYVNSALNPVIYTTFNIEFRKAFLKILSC
Briefly: Dopamine D3 receptor binding ([125I]-iodosulpride displacement). The procedure:
The substance to be tested was either dissolved in methanol/Chremophor® (BASF-AG) or in dimethyl sulfoxide and then diluted with water to the desired concentration.
Each assay mixture was run in triplicate.
The incubation buffer contained 50 mM tris, 120 mM NaCl, 5 mM KCl, 2 mM CaCl2, 2 mM MgCl2 and 0.1% bovine serum albumin, 10 μM quinolone and 0.1% ascorbic acid (prepared fresh daily). The buffer was adjusted to pH 7.4 with HCl.
Measurement and Analysis:
After having been incubated at 25° C. for 60 minutes, the assay mixtures were filtered through a Wathman GF/B glass fiber filter under vacuum using a cell collecting device. The filters were transferred to scintillation viols using a filter transfer system. After 4 ml of Ultima Gold® (Packard) have been added, the samples were shaken for one hour and the radioactivity was then counted in a Beta-Counter (Packard, Tricarb 2000 or 2200CA). The cpm values were converted into dpm using a standard quench series and the program belonging to the instrument.
The inhibition curves were analyzed by means of iterative nonlinear regression analysis using the Statistical Analysis System (SAS) which is similar to the “LIGAND” program described by Munson and Rodbard.

The mark [4] stands for this setting: Table 5, membranes of HEK-293 cells, read-out: Ki D3.
The mark [5] stands for this setting: Table 6, membranes of HEK-293 cells, read-out: ki D3.
[6] abbreviates: Table 7, compounds of formula IIa, read-out: D3.
The mark [7] stands for this setting: compounds II, read-out: Ki D3 values.

The structures appear in SMILES notation. pKi: −log10 of the molar value. Read-outs that look alike come from different tables or passages of the source.

Experimental findings from US8101754B2, “Triazole compounds suitable for treating disorders that respond to modulation of the dopamine D3 receptor” (Abbott GmbH & Co. KG, priority 2004, dated 2012) are described below.

T1 sequence (P14416 whole entry, canonical isoform): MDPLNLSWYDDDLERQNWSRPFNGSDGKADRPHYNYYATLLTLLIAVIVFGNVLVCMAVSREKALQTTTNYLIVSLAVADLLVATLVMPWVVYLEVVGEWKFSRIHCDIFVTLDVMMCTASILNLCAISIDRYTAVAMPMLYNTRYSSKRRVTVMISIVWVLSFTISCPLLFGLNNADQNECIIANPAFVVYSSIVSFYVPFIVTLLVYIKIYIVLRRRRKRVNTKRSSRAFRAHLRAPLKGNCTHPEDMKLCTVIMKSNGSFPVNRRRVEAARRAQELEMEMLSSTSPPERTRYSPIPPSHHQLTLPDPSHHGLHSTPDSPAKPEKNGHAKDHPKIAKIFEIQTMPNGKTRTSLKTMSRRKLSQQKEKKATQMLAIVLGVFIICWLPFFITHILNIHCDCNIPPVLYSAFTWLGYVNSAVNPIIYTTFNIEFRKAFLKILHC

Take `Cc1nnc([S+]([O-])CCCN2CCN(c3cc(C(C)(C)C)nc(C(C)(C)C)n3)CC2)n1C` (racemic) [Example 1, 2,4-Di-tert-butyl-6-{4-[3-(4,5-dimethyl-4H-[1,2,4]triazole-3-sulfinyl)-propyl]-piperazin-1-yl}-pyrimidine]: the “Selectivity [Ki(D2)/Ki(D3)]” value in series [1] (Table 5) is 26. Besides, the Brain level in series [2] (Table 5) is 1670 ng/g. The pKi in series [3] (setting [4]) was 7.71.

For the molecule `Cc1nnc(S(=O)(=O)CCCN2CCN(c3cc(C(C)(C)C)nc(C(C)(C)C)n3)CC2)n1C` [Example 4, 2,4-Di-tert-butyl-6-{4-[3-(4,5-dimethyl-4H-[1,2,4]triazole-3-sulfonyl)-propyl]-piperazin-1-yl}-pyrimidine], in series [1] (Table 5), the “Selectivity [Ki(D2)/Ki(D3)]” value is given as 34. For the same molecule, the Brain level in series [2] (Table 5) turned out to be 1920 ng/g. Moreover, the pKi in series [3] (setting [4]) was 8.21.

With `CC(C)c1cc(N2CCN(CCCS(=O)(=O)c3nncn3C)CC2)nc(C(C)(C)C)n1` [Example 23, 2-tert-Butyl-4-{4-[3-(4-methyl-1H-[1,2,4]triazole-3-sulfonyl)-propyl]-piperazin-1-yl}-6-isopropyl-pyrimidine], the “Selectivity [Ki(D2)/Ki(D3)]” value in series [1] (Table 6) was 49. In addition, the pKi in series [3] (setting [5]) is 7.22.

On to `Cn1cnnc1S(=O)(=O)CCCN1CCN(c2cc(C3CCCC3)nc(C(C)(C)C)n2)CC1` [Example 24, 2-tert-Butyl-4-{4-[3-(4-methyl-1H-[1,2,4]triazole-3-sulfonyl)-propyl]-piperazin-1-yl}-6-cyclopentyl-pyrimidine], for which, in series [1] (Table 6), the “Selectivity [Ki(D2)/Ki(D3)]” value worked out at 20. The pKi in series [3] (setting [5]) is 8.12.

`Cn1cnnc1[S+]([O-])CCCN1CCN(c2cc(C3CCCC3)nc(C(C)(C)C)n2)CC1` (stereo not drawn) [Example 25, 2-tert-Butyl-4-{4-[3-(4-methyl-1H-[1,2,4]triazole-3-sulfinyl)-propyl]-piperazin-1-yl}-6-cyclopentyl-pyrimidine]: in series [1] (Table 6), the “Selectivity [Ki(D2)/Ki(D3)]” value amounted to 30. For the same molecule, in series [3] (setting [5]), the pKi was 7.63.

Take `CCCc1cc(N2CCN(CCCS(=O)(=O)c3nncn3C)CC2)nc(C(C)(C)C)n1` [Example 26, 2-tert-Butyl-4-{4-[3-(4-methyl-1H-[1,2,4]triazole-3-sulfonyl)-propyl]-piperazin-1-yl}-6-propyl-pyrimidine]: the “Selectivity [Ki(D2)/Ki(D3)]” value in series [1] (Table 6) worked out at 33. For the same molecule, the pKi in series [3] (setting [5]) was 7.35.

On to `Cn1cnc(S(=O)(=O)CCCN2CCN(c3cc(C(C)(C)C)nc(C(C)(C)C)n3)CC2)n1` [Example 27, 2,6-di-tert-Butyl-4-{4-[3-(1-methyl-1H-[1,2,4]triazole-3-sulfonyl)-propyl]-piperazin-1-yl}-pyrimidine], for which the “Selectivity [Ki(D2)/Ki(D3)]” value in series [1] (Table 6) amounted to 24. Besides, the pKi in series [3] (setting [5]) was 8.01.

As to `CCCc1cc(N2CCN(CCC[S+]([O-])c3ncn(C)n3)CC2)nc(C(C)(C)C)n1.Cl` (stereo not drawn) [Example 28, 2-tert-Butyl-4-{4-[3-(1-methyl-1H-[1,2,4]triazole-3-sulfinyl)-propyl]-piperazin-1-yl}-6-propyl-pyrimidine hydrochloride], the “Selectivity [Ki(D2)/Ki(D3)]” value in series [1] (Table 6) was found to be 158. Moreover, in series [3] (setting [5]), the pKi was 8.00.

On to `CCCc1cc(N2CCN(CCCS(=O)(=O)c3ncn(C)n3)CC2)nc(C(C)(C)C)n1` [Example 29, 2-tert-Butyl-4-{4-[3-(1-methyl-1H-[1,2,4]triazole-3-sulfonyl)-propyl]-piperazin-1-yl}-6-propyl-pyrimidine], for which, in series [1] (Table 6), the “Selectivity [Ki(D2)/Ki(D3)]” value amounted to 59. Further, the pKi in series [3] (setting [5]) was 7.69.

Regarding `Cl.Cn1cnc([S+]([O-])CCCN2CCN(c3cc(C(C)(C)C)nc(C(C)(C)C)n3)CC2)n1` (stereo not drawn) [Example 30, 2,6-di-tert-Butyl-4-{4-[3-(1-methyl-1H-[1,2,4]triazole-3-sulfinyl)-propyl]-piperazin-1-yl}-pyrimidine hydrochloride], the “Selectivity [Ki(D2)/Ki(D3)]” value in series [1] (Table 6) amounted to 51. For the same molecule, in series [3] (setting [5]), the pKi was 8.46.

Take `CC(C)(C)c1nc(N2CCN(CCCS(=O)(=O)c3nc[nH]n3)CC2)cc(C2(C)CC2)n1` [Example 31, 2-tert-butyl-6-{4-[3-(1H-[1,2,4]triazole-3-sulfonyl)-propyl]-piperazin-1-yl}-6-(1-methyl)cyclopropyl-pyrimidine]: the “Selectivity [Ki(D2)/Ki(D3)]” value in series [1] (Table 6) stood at 37. Moreover, the pKi in series [3] (setting [5]) is 7.65.

As to `COCc1nnc(SCCCN2CCN(c3cc(C(F)F)nc(C(C)(C)C)n3)CC2)n1C.Cl` [c.4, 2-tert-Butyl-4-{4-[3-(4-methyl-5-methoxymethyl-4H-[1,2,4]triazol-3-ylsulfanyl)-propyl]-piperazin-1-yl}-6-difluoromethyl-pyrimidine hydrochloride], in series [1], the D2/D3 was 96. Moreover, in series [2] (Table 7), the Brain level stood at 290 ng/g. For the same molecule, the results for the pKi in series [3] (setting [6]) and in series [3] (setting [7]) were 8.82 and over 8.30, respectively.

In turn, `Cl.Cn1c(SCCCN2CCN(c3cc(C(F)F)nc(C(C)(C)C)n3)CC2)nnc1C(C)(C)C` [c.7, 2-tert-Butyl-4-{4-[3-(4-methyl-5-tert-butyl-4H-[1,2,4]triazol-3-ylsulfanyl)-propyl]-piperazin-1-yl}-6-difluoromethyl-pyrimidine hydrochloride] came in with a D2/D3 in series [1] of 115. In addition, the pKi in series [3] (setting [6]) is 8.92; in series [3] (setting [7]), over 8.30.

In series [1], `CCCc1cc(N2CCN(CCCSc3nnc(CC)n3C)CC2)nc(C(C)(C)C)n1.Cl` [c.11, 2-tert-Butyl-4-{4-[3-(4-methyl-5-ethyl-4H-[1,2,4]triazol-3-ylsulfanyl)-propyl]-piperazin-1-yl}-6-propyl-pyrimidine hydrochloride] gave a D2/D3 of 470. The Brain level in series [2] (Table 7) worked out at 840 ng/g. In series [3] (setting [6]), the pKi is 8.77.

Turning to `CCCc1cc(N2CCN(CCCSc3nnc(COC)n3C)CC2)nc(C(C)(C)C)n1.Cl` [c.12, 2-tert-Butyl-4-{4-[3-(4-methyl-5-methoxymethyl-4H-[1,2,4]triazol-3-ylsulfanyl)-propyl]-piperazin-1-yl}-6-propyl-pyrimidine hydrochloride], the D2/D3 in series [1] was determined as 143. For the same molecule, in series [2] (Table 7), the Brain level was found to be 780 ng/g. The pKi in series [3] (setting [6]) was 8.62; in series [3] (setting [7]), over 8.30.

For `Cl.Cn1c(SCCCN2CCN(c3cc(C(F)(F)F)nc(C(C)(C)C)n3)CC2)nnc1C(F)(F)F` [c.13, 2-tert-Butyl-4-{4-[3-(4-methyl-5-trifluoromethyl-4H-[1,2,4]triazol-3-ylsulfanyl)-propyl]-piperazin-1-yl}-6-trifluoromethyl-pyrimidine hydrochloride], the D2/D3 in series [1] amounted to 157. Besides, the pKi in series [3] (setting [6]) was 8.89.

As to `Cc1nnc(SCCCN2CCN(c3cc(C(F)(F)F)nc(C(C)(C)C)n3)CC2)n1C.Cl` [c.14, 2-tert-Butyl-4-{4-[3-(4-methyl-5-methyl-4H-[1,2,4]triazol-3-ylsulfanyl)-propyl]-piperazin-1-yl}-6-trifluoromethyl-pyrimidine hydrochloride], in series [1], the D2/D3 amounted to 135. Besides, in series [3] (setting [6]), the pKi is 8.82.

`COCc1nnc(SCCCN2CCN(c3cc(C(F)(F)F)nc(C(C)(C)C)n3)CC2)n1C.Cl` [c.16, 2-tert-Butyl-4-{4-[3-(4-methyl-5-methoxymethyl-4H-[1,2,4]triazol-3-ylsulfanyl)-propyl]-piperazin-1-yl}-6-trifluoromethyl-pyrimidine hydrochloride]: the D2/D3 in series [1] worked out at 237. Besides, the pKi in series [3] (setting [6]) is 9.19; in series [3] (setting [7]), over 8.30.

Turning to `CC(=O)O.Cn1c(SCCCN2CCN(c3cc(C(F)(F)F)nc(C(C)(C)C)n3)CC2)nnc1C1CCC1` [c.18, 2-tert-Butyl-4-{4-[3-(4-methyl-5-cyclobutyl-4H-[1,2,4]triazol-3-ylsulfanyl)-propyl]-piperazin-1-yl}-6-trifluoromethyl-pyrimidine acetate], the D2/D3 in series [1] is given as 134. In addition, the pKi in series [3] (setting [6]) is 8.54; in series [3] (setting [7]), over 8.30.
